Assay results taken from patent US20230085307A1, “PYRIDAZINONE COMPOUND AND HERBICIDE” (NISSAN CHEMICAL CORPORATION, priority 2019, published 2023).

Columns and labels:
green foxtail [1] = assay: Test Example 5: herbicidal effect by foliage application, plastic box (Table 20, symbol G); assay type: in vivo, green foxtail (Setaria viridis); conditions: foliage application, AAH 320 g/ha, evaluated three weeks after application
Summary of the method: (§1)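 Plants sown in sterilized diluvial soil and grown 14 days in a greenhouse at 25° C to 30° C, then sprayed on the foliage with the compound's emulsion diluted in water to a predetermined herbicide amount. Injury to weeds and crops scored three weeks after application on a visual rating scale.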

persian speedwell [2] = assay: Test Example 5: herbicidal effect by foliage application, plastic box (Table 20, symbol R); assay type: in vivo, Persian speedwell (Veronica persica); conditions: foliage application, AAH 320 g/ha, evaluated three weeks after application
Summary of the method: as §1

windgrass [3] = assay: Test Example 5: herbicidal effect by foliage application, plastic box (Table 20, symbol L); assay type: in vivo, windgrass (Apera spica-venti); conditions: foliage application, AAH 320 g/ha, evaluated three weeks after application
Summary of the method: as §1

false cleavers = assay: Test Example 4: herbicidal effect by soil treatment (Table 19, symbol Q); assay type: in vivo, false cleavers (Galium spurium); conditions: amount of applied herbicide 320 g/ha
Summary of the method: (§2)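 Three weeks of greenhouse growth at 25° C. to 30° C. followed a uniform surface spray of water-diluted emulsion at a predetermined herbicide amount. Seeds had been sown beforehand under about 1.5 cm of sterilized diluvial soil. Grading followed criteria set out in an earlier test.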

Italian ryegrass [4] = assay: Test Example 4: herbicidal effect by soil treatment (Table 19, symbol K); assay type: in vivo, Italian ryegrass (Lolium multiflorum); conditions: amount of applied herbicide 320 g/ha
Summary of the method: as §2

Chinese sprangletop = assay: Test Example 3: herbicidal effect by foliage application, Wagner pot (Table 18, symbol D); assay type: in vivo, chinese sprangletop (Leptochloa chinensis); conditions: amount of applied herbicide 320 g/ha
Summary of the method: (§3)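 Plants were sown in alluvial soil held under 0.1–0.5 cm standing water and grown 14 days in a greenhouse at 25–30 °C. An emulsifiable formulation, water-diluted to the set dose, was then sprayed onto the foliage, and effects were scored three weeks later using previously defined criteria.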

blackgrass [5] = assay: Test Example 5: herbicidal effect by foliage application, plastic box (Table 20, symbol J); assay type: in vivo, blackgrass (Alopecurus myosuroides); conditions: foliage application, AAH 320 g/ha, evaluated three weeks after application
Summary of the method: as §1

lambsquarters [6] = assay: Test Example 4: herbicidal effect by soil treatment (Table 19, symbol O); assay type: in vivo, lambsquarters (Chenopodium album); conditions: amount of applied herbicide 320 g/ha
Summary of the method: as §2

redroot pigweed [7] = assay: Test Example 4: herbicidal effect by soil treatment (Table 19, symbol N); assay type: in vivo, redroot pigweed (Amaranthus retroflexus); conditions: amount of applied herbicide 320 g/ha
Summary of the method: as §2

chickweed [8] = assay: Test Example 5: herbicidal effect by foliage application, plastic box (Table 20, symbol P); assay type: in vivo, common chickweed (Stellaria media); conditions: foliage application, AAH 320 g/ha, evaluated three weeks after application
Summary of the method: as §1

Italian ryegrass [9] = assay: Test Example 5: herbicidal effect by foliage application, plastic box (Table 20, symbol K); assay type: in vivo, Italian ryegrass (Lolium multiflorum); conditions: foliage application, AAH 320 g/ha, evaluated three weeks after application
Summary of the method: as §1

barnyard grass [10] = assay: Test Example 4: herbicidal effect by soil treatment (Table 19, symbol H); assay type: in vivo, barnyard grass (Echinochloa crus-galli); conditions: amount of applied herbicide 320 g/ha
Summary of the method: as §2

late watergrass = assay: Test Example 1: herbicidal activity, application before weed generation under submerged conditions (Table 16, symbol A); assay type: in vivo, late watergrass (Echinochloa oryzicola); conditions: 320 g/ha applied herbicide
Summary of the method: (§4)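 Emulsion formulation, water-diluted to set dose, was put onto the flooded surface (4 cm depth, alluvial soil) the same day weeds were sown and 2.5-leaf rice transplanted. After 3 weeks at 25-30 °C under glass, each species was rated 0 (≤5% kill) to 5 (≥90% kill).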

velvetleaf [11] = assay: Test Example 4: herbicidal effect by soil treatment (Table 19, symbol M); assay type: in vivo, velvetleaf (Abutilon theophrasti); conditions: amount of applied herbicide 320 g/ha
Summary of the method: as §2

lambsquarters [12] = assay: Test Example 5: herbicidal effect by foliage application, plastic box (Table 20, symbol O); assay type: in vivo, lambsquarters (Chenopodium album); conditions: foliage application, AAH 320 g/ha, evaluated three weeks after application
Summary of the method: as §1

rice flat sedge = assay: Test Example 3: herbicidal effect by foliage application, Wagner pot (Table 18, symbol E); assay type: in vivo, rice flat sedge (Cyperus iria); conditions: amount of applied herbicide 320 g/ha
Summary of the method: as §3

barnyard grass [13] = assay: Test Example 3: herbicidal effect by foliage application, Wagner pot (Table 18, symbol H); assay type: in vivo, barnyard grass (Echinochloa crus-galli); conditions: amount of applied herbicide 320 g/ha
Summary of the method: as §3

wild oat [14] = assay: Test Example 4: herbicidal effect by soil treatment (Table 19, symbol I); assay type: in vivo, wild oat (Avena fatua); conditions: amount of applied herbicide 320 g/ha
Summary of the method: as §2

oval-leafed pondweed = assay: Test Example 1: herbicidal activity, application before weed generation under submerged conditions (Table 16, symbol C); assay type: in vivo, oval-leafed pondweed (Monochoria vaginalis); conditions: 320 g/ha applied herbicide
Summary of the method: as §4

redroot pigweed [15] = assay: Test Example 5: herbicidal effect by foliage application, plastic box (Table 20, symbol N); assay type: in vivo, redroot pigweed (Amaranthus retroflexus); conditions: foliage application, AAH 320 g/ha, evaluated three weeks after application
Summary of the method: as §1

blackgrass [16] = assay: Test Example 4: herbicidal effect by soil treatment (Table 19, symbol J); assay type: in vivo, blackgrass (Alopecurus myosuroides); conditions: amount of applied herbicide 320 g/ha
Summary of the method: as §2

southern crabgrass [17] = assay: Test Example 5: herbicidal effect by foliage application, plastic box (Table 20, symbol F); assay type: in vivo, southern crabgrass (Digitaria ciliaris); conditions: foliage application, AAH 320 g/ha, evaluated three weeks after application
Summary of the method: as §1

green foxtail [18] = assay: Test Example 4: herbicidal effect by soil treatment (Table 19, symbol G); assay type: in vivo, green foxtail (Setaria viridis); conditions: amount of applied herbicide 320 g/ha
Summary of the method: as §2

wild oat [19] = assay: Test Example 5: herbicidal effect by foliage application, plastic box (Table 20, symbol I); assay type: in vivo, wild oat (Avena fatua); conditions: foliage application, AAH 320 g/ha, evaluated three weeks after application
Summary of the method: as §1

southern crabgrass [20] = assay: Test Example 4: herbicidal effect by soil treatment (Table 19, symbol F); assay type: in vivo, southern crabgrass (Digitaria ciliaris); conditions: amount of applied herbicide 320 g/ha
Summary of the method: as §2

Japanese bulrush = assay: Test Example 1: herbicidal activity, application before weed generation under submerged conditions (Table 16, symbol B); assay type: in vivo, Japanese bulrush (Schoenoplectus juncoides); conditions: 320 g/ha applied herbicide
Summary of the method: as §4

persian speedwell [21] = assay: Test Example 4: herbicidal effect by soil treatment (Table 19, symbol R); assay type: in vivo, Persian speedwell (Veronica persica); conditions: amount of applied herbicide 320 g/ha
Summary of the method: as §2

velvetleaf [22] = assay: Test Example 5: herbicidal effect by foliage application, plastic box (Table 20, symbol M); assay type: in vivo, velvetleaf (Abutilon theophrasti); conditions: foliage application, AAH 320 g/ha, evaluated three weeks after application
Summary of the method: as §1

barnyard grass [23] = assay: Test Example 5: herbicidal effect by foliage application, plastic box (Table 20, symbol H); assay type: in vivo, barnyard grass (Echinochloa crus-galli); conditions: foliage application, AAH 320 g/ha, evaluated three weeks after application
Summary of the method: as §1

windgrass [24] = assay: Test Example 4: herbicidal effect by soil treatment (Table 19, symbol L); assay type: in vivo, windgrass (Apera spica-venti); conditions: amount of applied herbicide 320 g/ha
Summary of the method: as §2

chickweed [25] = assay: Test Example 4: herbicidal effect by soil treatment (Table 19, symbol P); assay type: in vivo, common chickweed (Stellaria media); conditions: amount of applied herbicide 320 g/ha
Summary of the method: as §2

COCCOCOc1c(C)nn(C)c(=O)c1-c1c(-c2ccc(OC(F)F)cc2)sc2ccc(F)cc12 [2-307]
G: green foxtail, herbicidal effect (criteria 0-5) (green foxtail [1]): 5 (Herbicidal rate of 90% or more (almost completely withered))
R: persian speedwell, herbicidal effect (criteria 0-5) (persian speedwell [2]): 5 (Herbicidal rate of 90% or more (almost completely withered))
L: windgrass, herbicidal effect (criteria 0-5) (windgrass [3]): 3 (Herbicidal rate of 40% or more and less than 70%)
herbicidal effect on Q: false cleavers (false cleavers): 0 (Herbicidal rate of 5% or less (almost no effect))
herbicidal effect on K: Italian ryegrass (Italian ryegrass [4]): 1 (Herbicidal rate of 5% or more and less than 20%)
herbicidal effect on D: Chinese sprangletop (Chinese sprangletop): 5 (Herbicidal rate of 90% or more (almost completely withered))
J: blackgrass, herbicidal effect (criteria 0-5) (blackgrass [5]): 4 (Herbicidal rate of 70% or more and less than 90%)
herbicidal effect on O: lambsquarters (lambsquarters [6]): 5 (Herbicidal rate of 90% or more (almost completely withered))
herbicidal effect on N: redroot pigweed (redroot pigweed [7]): 5 (Herbicidal rate of 90% or more (almost completely withered))
P: chickweed, herbicidal effect (criteria 0-5) (chickweed [8]): 5 (Herbicidal rate of 90% or more (almost completely withered))
K: Italian ryegrass, herbicidal effect (criteria 0-5) (Italian ryegrass [9]): 5 (Herbicidal rate of 90% or more (almost completely withered))
herbicidal effect on H: barnyard grass (barnyard grass [10]): 3 (Herbicidal rate of 40% or more and less than 70%)
Herbicidal effect on A: late watergrass (grade 0-5) (late watergrass): 0 (Herbicidal rate of 5% or less (almost no effect))
herbicidal effect on M: velvetleaf (velvetleaf [11]): 0 (Herbicidal rate of 5% or less (almost no effect))
O: lambsquarters, herbicidal effect (criteria 0-5) (lambsquarters [12]): 5 (Herbicidal rate of 90% or more (almost completely withered))
herbicidal effect on E: rice flat sedge (rice flat sedge): 4 (Herbicidal rate of 70% or more and less than 90%)
herbicidal effect on H: barnyard grass (barnyard grass [13]): 5 (Herbicidal rate of 90% or more (almost completely withered))
herbicidal effect on I: wild oat (wild oat [14]): 0 (Herbicidal rate of 5% or less (almost no effect))
Herbicidal effect on C: oval-leafed pondweed (grade 0-5) (oval-leafed pondweed): 0 (Herbicidal rate of 5% or less (almost no effect))
N: redroot pigweed, herbicidal effect (criteria 0-5) (redroot pigweed [15]): 5 (Herbicidal rate of 90% or more (almost completely withered))
herbicidal effect on J: blackgrass (blackgrass [16]): 2 (Herbicidal rate of 20% or more and less than 40%)
F: southern crabgrass, herbicidal effect (criteria 0-5) (southern crabgrass [17]): 2 (Herbicidal rate of 20% or more and less than 40%)
herbicidal effect on G: green foxtail (green foxtail [18]): 4 (Herbicidal rate of 70% or more and less than 90%)
I: wild oat, herbicidal effect (criteria 0-5) (wild oat [19]): 3 (Herbicidal rate of 40% or more and less than 70%)
herbicidal effect on F: southern crabgrass (southern crabgrass [20]): 4 (Herbicidal rate of 70% or more and less than 90%)
Herbicidal effect on B: Japanese bulrush (grade 0-5) (Japanese bulrush): 3 (Herbicidal rate of 40% or more and less than 70%)
herbicidal effect on R: persian speedwell (persian speedwell [21]): 5 (Herbicidal rate of 90% or more (almost completely withered))
M: velvetleaf, herbicidal effect (criteria 0-5) (velvetleaf [22]): 5 (Herbicidal rate of 90% or more (almost completely withered))
H: barnyard grass, herbicidal effect (criteria 0-5) (barnyard grass [23]): 5 (Herbicidal rate of 90% or more (almost completely withered))
herbicidal effect on L: windgrass (windgrass [24]): 0 (Herbicidal rate of 5% or less (almost no effect))
herbicidal effect on P: chickweed (chickweed [25]): 3 (Herbicidal rate of 40% or more and less than 70%)
